# Data taken from patent publication US5391540A, “Substituted pyridine compounds” (Rohm and Haas Company, priority 1993, dated 1995).
# How the values were obtained:
# Type in all cases: in vivo
# Downy Brome = experiment: Pre-emergent herbicidal activity (Table A); conditions: Bromus tectorum, pre-emergence, Dobr, 11.2 kg/ha, 10-14 days, read-out: herbicidal rating (% inhibition)
# Summary of the method: (§1)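 Percent inhibition per species, scored on a rating scale, after pre-emergent soil incorporation: test compound in acetone or water carrier mixed into cover soil, layered over seeded topsoil or vegetative propagules.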
# Cocklebur = experiment: Pre-emergent herbicidal activity (Table A); conditions: Xanthium strumarium, pre-emergence, Cobu, 11.2 kg/ha, 10-14 days, read-out: herbicidal rating (% inhibition)
# Summary of the method: as §1
# Velvetleaf = experiment: Pre-emergent herbicidal activity (Table A); conditions: Abutilon theophrasti, pre-emergence, Vele, 11.2 kg/ha, 10-14 days, read-out: herbicidal rating (% inhibition)
# Summary of the method: as §1
# Morningglory = experiment: Pre-emergent herbicidal activity (Table A); conditions: Ipomoea, pre-emergence, Mogl, 11.2 kg/ha, 10-14 days, read-out: herbicidal rating (% inhibition)
# Summary of the method: as §1
# Yellow Nutsedge = experiment: Pre-emergent herbicidal activity (Table A); conditions: Cyperus, pre-emergence, Yens, 11.2 kg/ha, 10-14 days, read-out: herbicidal rating (% inhibition)
# Summary of the method: as §1
# Barnyardgrass = experiment: Pre-emergent herbicidal activity (Table A); conditions: Echinochloa crus-galli, pre-emergence, Bygr, 11.2 kg/ha, 10-14 days, read-out: herbicidal rating (% inhibition)
# Summary of the method: as §1
# Cobu = experiment: plant injury after spraying emerged plants (Table D); set-up: scale not given here
# From the text: (§2) Topsoil (silt loam) is sieved through a screen having 1.27 cm openings. […] This mixture is steam sterilized and then placed in aluminum pans 6.985 cm deep having ten holes in the bottom each 0.635 cm in diameter. The soil mixture is compacted to a depth of 1.27 cm. from the top of the pan. A predetermined number of seeds of each of several dicotyledonous and monocotyledonous annual plant species and/or vegetative propagules for the perennial plant species are placed on the soil and pressed into the soil surface. The seeds and/or vegetative propagules are covered with 1.27 cm of a mixture of 50% topsoil and 50% of a mixture of Canadian sphagnum peat moss, vermiculite and a wetting agent. The pans are then placed on a capillary mat on a greenhouse bench and subirrigated as needed.
# (§3) In the following Table D the legends used to identify the plant species are the same as those used in the preceding Table B.
# Bygr = experiment: as above; set-up: scale not given here
# From the text: as §2, §3
# Lacg = experiment: as above; set-up: scale not given here
# From the text: as §2, §3
# Sobe = experiment: as above; set-up: scale not given here
# From the text: as §2, §3
# Grft = experiment: as above; set-up: scale not given here
# From the text: as §2, §3
# Grso = experiment: as above; set-up: scale not given here
# From the text: as §2, §3
# Rice = experiment: as above; set-up: scale not given here
# From the text: as §2, §3
# Corn = experiment: as above; set-up: scale not given here
# From the text: as §2, §3
# Whez = experiment: as above; set-up: scale not given here
# From the text: as §2, §3
# Dobr = experiment: as above
# From the text: Topsoil (silt loam) is sieved through a screen having 1.27 cm openings. In some of the tests the soil was mixed with fertilizer (1225 g/cu. m of 12/5/9 containing isobutylidene diurea), while in other tests the fertilizer was omitted. This mixture is steam sterilized and then placed in aluminum pans 6.985 cm deep having ten holes in the bottom each 0.635 cm in diameter. The soil mixture is compacted to a depth of 1.27 cm. from the top of the pan. A predetermined number of seeds of each of several dicotyledonous and monocotyledonous annual plant species and/or vegetative propagules for the perennial plant species are placed on the soil and pressed into the soil surface. The seeds and/or vegetative propagules are covered with 1.27 cm of a mixture of 50% topsoil and 50% of a mixture of Canadian sphagnum peat moss, vermiculite and a wetting agent. The pans are then placed on a capillary mat on a greenhouse bench and subirrigated as needed. After the plants reach the desired stage (9 to 14 days, 1 to 3 true leaf stage), each pan (except the control pans) is removed to a spraying chamber and sprayed by means of an atomizer, operating at a spray pressure of 170.3 kPa ([…]) at the application rates noted in Table D. In the spray solution is an amount of an emulsifying agent mixture (35% butylamine salt of dodecylbenzenesulfonic acid and 65% tall oil condensed with ethylene oxide in the ratio of 11 mols of ethylene oxide/mol of tall oil) to give a spray solution or suspension. The spray solution or suspension contains a sufficient amount of the candidate chemical in order to give application rates of the active ingredient corresponding to those shown in Table D below while applying a total amount of solution or suspension equivalent to 1870 L/Ha (200 gallons/acre). The pans are returned to the greenhouse and watered as before and the injury to the plants as compared to the control pans is observed at approximately 10-14 days (usually 11 days).
# as §3
structure (smiles),measurement,setting,value
"COC(=O)c1c(OC)nc(C(F)(F)F)c(C(=O)NCCCBr)c1CC(C)C [Compound 97, 3-pyridinecarboxylic acid, 5-[[(3-bromopropyl)amino)carbonyl]-2-methoxy-4-(2-methylpropyl)-6-(trifluoromethyl)-, methyl ester]",inhibition at 11200 g/ha,Downy Brome,50 to 74%
same,inhibition at 11200 g/ha,Cocklebur,0 to 24%
same,inhibition at 11200 g/ha,Velvetleaf,50 to 74%
same,inhibition at 11200 g/ha,Morningglory,50 to 74%
same,inhibition at 11200 g/ha,Yellow Nutsedge,0 to 24%
same,inhibition at 11200 g/ha,Barnyardgrass,75 to 100%
same,"plant injury rating, Cobu",Cobu; 0.0701 kg/ha,0
same,"plant injury rating, Cobu",Cobu; 0.2803 kg/ha,0
same,"plant injury rating, Cobu",Cobu; 1.1210 kg/ha,0
same,"plant injury rating, Cobu",Cobu; 5.6050 kg/ha,0
same,"plant injury rating, Bygr",Bygr; 0.0701 kg/ha,0
same,"plant injury rating, Bygr",Bygr; 0.2803 kg/ha,0
same,"plant injury rating, Bygr",Bygr; 1.1210 kg/ha,0
same,"plant injury rating, Bygr",Bygr; 5.6050 kg/ha,0
same,"plant injury rating, Lacg",Lacg; 0.0701 kg/ha,0
same,"plant injury rating, Lacg",Lacg; 0.2803 kg/ha,0
same,"plant injury rating, Lacg",Lacg; 1.1210 kg/ha,2
same,"plant injury rating, Lacg",Lacg; 5.6050 kg/ha,0
same,"plant injury rating, Sobe",Sobe; 0.0701 kg/ha,0
same,"plant injury rating, Sobe",Sobe; 0.2803 kg/ha,0
same,"plant injury rating, Sobe",Sobe; 1.1210 kg/ha,0
same,"plant injury rating, Sobe",Sobe; 5.6050 kg/ha,0
same,"plant injury rating, Grft",Grft; 0.0701 kg/ha,0
same,"plant injury rating, Grft",Grft; 0.2803 kg/ha,0
same,"plant injury rating, Grft",Grft; 1.1210 kg/ha,0
same,"plant injury rating, Grft",Grft; 5.6050 kg/ha,0
same,"plant injury rating, Grso",Grso; 0.0701 kg/ha,0
same,"plant injury rating, Grso",Grso; 0.2803 kg/ha,0
same,"plant injury rating, Grso",Grso; 1.1210 kg/ha,0
same,"plant injury rating, Grso",Grso; 5.6050 kg/ha,0
same,"plant injury rating, Rice",Rice; 0.0701 kg/ha,0
same,"plant injury rating, Rice",Rice; 0.2803 kg/ha,0
same,"plant injury rating, Rice",Rice; 1.1210 kg/ha,0
same,"plant injury rating, Rice",Rice; 5.6050 kg/ha,0
same,"plant injury rating, Corn",Corn; 0.0701 kg/ha,0
same,"plant injury rating, Corn",Corn; 0.2803 kg/ha,0
same,"plant injury rating, Corn",Corn; 1.1210 kg/ha,0
same,"plant injury rating, Corn",Corn; 5.6050 kg/ha,0
same,"plant injury rating, Whez",Whez; 0.0701 kg/ha,0
same,"plant injury rating, Whez",Whez; 0.2803 kg/ha,0
same,"plant injury rating, Whez",Whez; 1.1210 kg/ha,0
same,"plant injury rating, Whez",Whez; 5.6050 kg/ha,0
same,"plant injury rating, Dobr",Dobr; 0.0701 kg/ha,0
same,"plant injury rating, Dobr",Dobr; 0.2803 kg/ha,0
same,"plant injury rating, Dobr",Dobr; 1.1210 kg/ha,0
same,"plant injury rating, Dobr",Dobr; 5.6050 kg/ha,0
"COC(=O)c1c(OC)nc(C(F)(F)F)c(C2=NCCCS2)c1CC(C)C [Compound 98, 3-pyridinecarboxylic acid, 5-(5,6-dihydro-4H-1,3-thiazin-2-yl)-2-methoxy-4-(2-methylpropyl)-6-(trifluoromethyl)-, methyl ester]",inhibition at 11200 g/ha,Downy Brome,75 to 100%
same,inhibition at 11200 g/ha,Cocklebur,0 to 24%
same,inhibition at 11200 g/ha,Velvetleaf,75 to 100%
same,inhibition at 11200 g/ha,Morningglory,75 to 100%
same,inhibition at 11200 g/ha,Yellow Nutsedge,0 to 24%
same,inhibition at 11200 g/ha,Barnyardgrass,75 to 100%
same,"plant injury rating, Cobu",Cobu; 0.0701 kg/ha,0
same,"plant injury rating, Cobu",Cobu; 0.2803 kg/ha,1
same,"plant injury rating, Cobu",Cobu; 1.1210 kg/ha,1
same,"plant injury rating, Cobu",Cobu; 5.6050 kg/ha,2
same,"plant injury rating, Bygr",Bygr; 0.0701 kg/ha,0
same,"plant injury rating, Bygr",Bygr; 0.2803 kg/ha,0
same,"plant injury rating, Bygr",Bygr; 1.1210 kg/ha,0
same,"plant injury rating, Bygr",Bygr; 5.6050 kg/ha,0
same,"plant injury rating, Lacg",Lacg; 0.0701 kg/ha,0
same,"plant injury rating, Lacg",Lacg; 0.2803 kg/ha,2
same,"plant injury rating, Lacg",Lacg; 1.1210 kg/ha,3
same,"plant injury rating, Lacg",Lacg; 5.6050 kg/ha,3
same,"plant injury rating, Sobe",Sobe; 0.0701 kg/ha,0
same,"plant injury rating, Sobe",Sobe; 0.2803 kg/ha,0
same,"plant injury rating, Sobe",Sobe; 1.1210 kg/ha,0
same,"plant injury rating, Sobe",Sobe; 5.6050 kg/ha,2
same,"plant injury rating, Grft",Grft; 0.0701 kg/ha,0
same,"plant injury rating, Grft",Grft; 0.2803 kg/ha,0
same,"plant injury rating, Grft",Grft; 1.1210 kg/ha,0
same,"plant injury rating, Grft",Grft; 5.6050 kg/ha,1
same,"plant injury rating, Grso",Grso; 0.0701 kg/ha,0
same,"plant injury rating, Grso",Grso; 0.2803 kg/ha,0
same,"plant injury rating, Grso",Grso; 1.1210 kg/ha,0
same,"plant injury rating, Grso",Grso; 5.6050 kg/ha,1
same,"plant injury rating, Rice",Rice; 0.0701 kg/ha,0
same,"plant injury rating, Rice",Rice; 0.2803 kg/ha,0
same,"plant injury rating, Rice",Rice; 1.1210 kg/ha,0
same,"plant injury rating, Rice",Rice; 5.6050 kg/ha,0
same,"plant injury rating, Corn",Corn; 0.0701 kg/ha,0
same,"plant injury rating, Corn",Corn; 0.2803 kg/ha,0
same,"plant injury rating, Corn",Corn; 1.1210 kg/ha,0
same,"plant injury rating, Corn",Corn; 5.6050 kg/ha,2
same,"plant injury rating, Whez",Whez; 0.0701 kg/ha,0
same,"plant injury rating, Whez",Whez; 0.2803 kg/ha,0
same,"plant injury rating, Whez",Whez; 1.1210 kg/ha,0
same,"plant injury rating, Whez",Whez; 5.6050 kg/ha,0
same,"plant injury rating, Dobr",Dobr; 0.0701 kg/ha,0
same,"plant injury rating, Dobr",Dobr; 0.2803 kg/ha,0
same,"plant injury rating, Dobr",Dobr; 1.1210 kg/ha,0
same,"plant injury rating, Dobr",Dobr; 5.6050 kg/ha,0
